Where a name gives a salt, the structure may show the parent alone.
Target: T1, human FPTase (Homo sapiens, UniProt P49354+P49356)
T1 construct: made in house
Test: In vitro inhibition of human FPTase
Type: biochemical
Conditions: 100 nM Ras-CVIM substrate, [3H]-FPP, 30 min; read-out: IC50 against human FPTase

SMILES	IC50
CCCCCN(Cc1cncn1Cc1ccc(C#N)cc1)C(=O)Nc1cccc(Cl)c1 [Example 1, N-(3-chlorophenyl)-N'-[1-(4-cyanobenzyl)-5-imidazolylmethyl]-N'-(n-pentyl)urea hydrochloride]	< 10 µM
CCCCCN(Cc1cncn1Cc1ccc(C#N)cc1)C(=O)N(C)c1cccc(Cl)c1 [Example 2, N-(3-chlorophenyl)-N-methyl-N'-[1-(4-cyanobenzyl)-5-imidazolylmethyl]-N'-(n-pentyl)urea hydrochloride]	< 10 µM
